For series [1], the target named is Amyloid-beta precursor protein (Homo sapiens, UniProt P05067). Kind of series: Displacement of [125I]DMIC from Amyloid beta (1 to 42) after 3 hrs by gamma counting.
Series [2] deals with Brain. Kind of series: Biodistribution in ddY mouse brain assessed as per gram of tissue at 0.3 to 0.5 uCi, iv after 30 mins by gamma counting. The format is ADME, organism-based. To be noted: in vivo, 0.5 h.
Series [3] has as its system Heart. As to the kind of experiment: Biodistribution in ddY mouse heart assessed as per gram of tissue at 0.3 to 0.5 uCi, iv after 30 mins by gamma counting. Format: ADME, organism-based. To be noted: in vivo, 0.5 h.
Series [4] has as its system Pancreas. As to the kind of experiment: Biodistribution in ddY mouse pancreas assessed as per gram of tissue at 0.3 to 0.5 uCi, iv after 30 mins by gamma counting. The format is ADME, organism-based. To be noted: in vivo, 0.5 h.
The test system of series [5] is Stomach. As to the kind of experiment: Biodistribution in ddY mouse stomach assessed as per gram of tissue at 0.3 to 0.5 uCi, iv after 30 mins by gamma counting. The format is ADME, organism-based. Particulars: in vivo, 0.5 h.
Series [6] has as its system Spleen. Kind of series: Biodistribution in ddY mouse spleen assessed as per gram of tissue at 0.3 to 0.5 uCi, iv after 30 mins by gamma counting. The format is ADME, organism-based. Particulars: in vivo, 0.5 h.
Series [7] relates to Intestine. As to the kind of experiment: Biodistribution in ddY mouse intestine assessed as per organ at 0.3 to 0.5 uCi, iv after 30 mins by gamma counting. Format: ADME, organism-based. To be noted: in vivo, 0.5 h.
For series [8], the system named is Kidney. As to the kind of experiment: Biodistribution in ddY mouse kidney assessed as per gram of tissue at 0.3 to 0.5 uCi, iv after 30 mins by gamma counting. To be noted: in vivo, 0.5 h. Format: ADME, organism-based.
The subject of series [9] is Liver. Kind of series: Biodistribution in ddY mouse liver assessed as per gram of tissue at 0.3 to 0.5 uCi, iv after 30 mins by gamma counting. The format is ADME, organism-based. To be noted: in vivo, 0.5 h.
Series [10] has as its system Blood. Kind of series: Biodistribution in ddY mouse blood assessed as per gram of tissue at 0.3 to 0.5 uCi, iv after 30 mins by gamma counting. Format: ADME, organism-based. Particulars: in vivo, 0.5 h.
Series [11] deals with Brain. Kind of series: Biodistribution in ddY mouse brain assessed as per gram of tissue at 0.3 to 0.5 uCi, iv after 10 mins by gamma counting. To be noted: in vivo. The format is ADME, organism-based.
The subject of series [12] is Heart. As to the kind of experiment: Biodistribution in ddY mouse heart assessed as per gram of tissue at 0.3 to 0.5 uCi, iv after 10 mins by gamma counting. Format: ADME, organism-based. To be noted: in vivo.
Series [13] has as its system Pancreas. Kind of series: Biodistribution in ddY mouse pancreas assessed as per gram of tissue at 0.3 to 0.5 uCi, iv after 10 mins by gamma counting. To be noted: in vivo. The format is ADME, organism-based.
The test system of series [14] is Stomach. As to the kind of experiment: Biodistribution in ddY mouse stomach assessed as per gram of tissue at 0.3 to 0.5 uCi, iv after 10 mins by gamma counting. The format is ADME, organism-based. To be noted: in vivo.
In series [15] the test system is Spleen. Kind of series: Biodistribution in ddY mouse spleen assessed as per gram of tissue at 0.3 to 0.5 uCi, iv after 10 mins by gamma counting. The format is ADME, organism-based. Particulars: in vivo.
Series [16] has as its system Intestine. Kind of series: Biodistribution in ddY mouse intestine assessed as per organ at 0.3 to 0.5 uCi, iv after 10 mins by gamma counting. Format: ADME, organism-based. Particulars: in vivo.
Series [17] relates to Kidney. As to the kind of experiment: Biodistribution in ddY mouse kidney assessed as per gram of tissue at 0.3 to 0.5 uCi, iv after 10 mins by gamma counting. The format is ADME, organism-based. Particulars: in vivo.
The test system of series [18] is Liver. As to the kind of experiment: Biodistribution in ddY mouse liver assessed as per gram of tissue at 0.3 to 0.5 uCi, iv after 10 mins by gamma counting. Format: ADME, organism-based. Particulars: in vivo.
Series [19] deals with Blood. As to the kind of experiment: Biodistribution in ddY mouse blood assessed as per gram of tissue at 0.3 to 0.5 uCi, iv after 10 mins by gamma counting. Particulars: in vivo. Format: ADME, organism-based.
In series [20] the test system is Brain. As to the kind of experiment: Biodistribution in ddY mouse brain assessed as per gram of tissue at 0.3 to 0.5 uCi, iv after 2 mins by gamma counting. Format: ADME, organism-based. To be noted: in vivo.
Series [21] relates to Heart. As to the kind of experiment: Biodistribution in ddY mouse heart assessed as per gram of tissue at 0.3 to 0.5 uCi, iv after 2 mins by gamma counting. Particulars: in vivo. Format: ADME, organism-based.
The subject of series [22] is Pancreas. As to the kind of experiment: Biodistribution in ddY mouse pancreas assessed as per gram of tissue at 0.3 to 0.5 uCi, iv after 2 mins by gamma counting. Particulars: in vivo. Format: ADME, organism-based.
The subject of series [23] is Stomach. Kind of series: Biodistribution in ddY mouse stomach assessed as per gram of tissue at 0.3 to 0.5 uCi, iv after 2 mins by gamma counting. The format is ADME, organism-based. To be noted: in vivo.
Series [24] has as its system Spleen. Kind of series: Biodistribution in ddY mouse spleen assessed as per gram of tissue at 0.3 to 0.5 uCi, iv after 2 mins by gamma counting. The format is ADME, organism-based. Particulars: in vivo.
For series [25], the system named is Intestine. Kind of series: Biodistribution in ddY mouse intestine assessed as per organ at 0.3 to 0.5 uCi, iv after 2 mins by gamma counting. Format: ADME, organism-based. Particulars: in vivo.
Series [26] deals with Kidney. As to the kind of experiment: Biodistribution in ddY mouse kidney assessed as per gram of tissue at 0.3 to 0.5 uCi, iv after 2 mins by gamma counting. Format: ADME, organism-based. To be noted: in vivo.
Series [27] concerns Liver. As to the kind of experiment: Biodistribution in ddY mouse liver assessed as per gram of tissue at 0.3 to 0.5 uCi, iv after 2 mins by gamma counting. Format: ADME, organism-based. Particulars: in vivo.
In series [28] the test system is Blood. As to the kind of experiment: Biodistribution in ddY mouse blood assessed as per gram of tissue at 0.3 to 0.5 uCi, iv after 2 mins by gamma counting. Format: ADME, organism-based. Particulars: in vivo.
The test system of series [29] is Blood. As to the kind of experiment: Biodistribution in ddY mouse blood assessed as per gram of tissue at 0.3 to 0.5 uCi, iv after 60 mins by gamma counting. The format is ADME, organism-based. To be noted: in vivo, 1 h.
Series [30] has as its system Liver. As to the kind of experiment: Biodistribution in ddY mouse liver assessed as per gram of tissue at 0.3 to 0.5 uCi, iv after 60 mins by gamma counting. Particulars: in vivo, 1 h. The format is ADME, organism-based.
Series [31] concerns Kidney. As to the kind of experiment: Biodistribution in ddY mouse kidney assessed as per gram of tissue at 0.3 to 0.5 uCi, iv after 60 mins by gamma counting. The format is ADME, organism-based. To be noted: in vivo, 1 h.
For series [32], the system named is Intestine. Kind of series: Biodistribution in ddY mouse intestine assessed as per organ at 0.3 to 0.5 uCi, iv after 60 mins by gamma counting. The format is ADME, organism-based. Particulars: in vivo, 1 h.
Series [33] has as its system Spleen. As to the kind of experiment: Biodistribution in ddY mouse spleen assessed as per gram of tissue at 0.3 to 0.5 uCi, iv after 60 mins by gamma counting. The format is ADME, organism-based. To be noted: in vivo, 1 h.
Series [34] has as its system Stomach. As to the kind of experiment: Biodistribution in ddY mouse stomach assessed as per gram of tissue at 0.3 to 0.5 uCi, iv after 60 mins by gamma counting. The format is ADME, organism-based. To be noted: in vivo, 1 h.
Series [35] has as its system Pancreas. Kind of series: Biodistribution in ddY mouse pancreas assessed as per gram of tissue at 0.3 to 0.5 uCi, iv after 60 mins by gamma counting. The format is ADME, organism-based. To be noted: in vivo, 1 h.
For series [36], the system named is Heart. As to the kind of experiment: Biodistribution in ddY mouse heart assessed as per gram of tissue at 0.3 to 0.5 uCi, iv after 60 mins by gamma counting. Format: ADME, organism-based. To be noted: in vivo, 1 h.
Series [37] has as its system Brain. As to the kind of experiment: Biodistribution in ddY mouse brain assessed as per gram of tissue at 0.3 to 0.5 uCi, iv after 60 mins by gamma counting. The format is ADME, organism-based. Particulars: in vivo, 1 h.
The species named for series [38] is Mus musculus. As to the kind of experiment: Binding affinity to beta-amyloid in Tg2576 transgenic mouse brain after 3 mins by microscopic analysis. The format is tissue-based.
Series [39] is filed under the species Mus musculus. Kind of series: Binding affinity to beta-amyloid in wild type mouse brain after 3 mins by microscopic analysis. The format is tissue-based.

Active and inactive are the calls of the source. The rule behind the calls is not given here.

Experimental findings from ChEMBL document CHEMBL1641605, “Diphenylpropynone derivatives as probes for imaging β-amyloid plaques in Alzheimer's brains” (Bioorg Med Chem Lett, 2011) are described below.

Chain of Amyloid-beta precursor protein (P05067 whole entry): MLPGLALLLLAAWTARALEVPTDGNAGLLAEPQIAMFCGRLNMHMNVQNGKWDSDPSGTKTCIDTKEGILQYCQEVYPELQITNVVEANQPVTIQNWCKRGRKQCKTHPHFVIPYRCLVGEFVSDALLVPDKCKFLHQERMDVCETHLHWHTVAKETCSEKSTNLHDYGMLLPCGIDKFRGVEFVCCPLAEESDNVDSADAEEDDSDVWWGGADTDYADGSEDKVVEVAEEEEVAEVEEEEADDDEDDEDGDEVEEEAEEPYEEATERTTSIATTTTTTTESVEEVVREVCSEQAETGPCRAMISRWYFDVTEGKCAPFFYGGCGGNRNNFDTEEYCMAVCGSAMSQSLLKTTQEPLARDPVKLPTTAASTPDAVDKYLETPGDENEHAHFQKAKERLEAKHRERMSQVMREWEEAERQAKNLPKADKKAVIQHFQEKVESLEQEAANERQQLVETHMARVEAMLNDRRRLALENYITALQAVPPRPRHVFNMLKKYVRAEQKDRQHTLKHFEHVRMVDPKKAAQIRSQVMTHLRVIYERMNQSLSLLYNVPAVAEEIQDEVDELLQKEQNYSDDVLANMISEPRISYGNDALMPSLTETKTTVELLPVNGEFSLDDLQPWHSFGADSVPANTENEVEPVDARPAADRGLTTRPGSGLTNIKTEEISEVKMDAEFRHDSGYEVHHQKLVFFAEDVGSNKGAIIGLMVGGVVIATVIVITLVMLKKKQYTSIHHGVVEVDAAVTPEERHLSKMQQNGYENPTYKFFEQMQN

With `O=C(C#Cc1ccc(O)cc1)c1ccc(I)cc1`, the inhibition constant Ki in series [1] came out at 326 nM.

Turning to `CN(C)c1ccc(C#CC(=O)c2ccc(F)cc2)cc1`, the affinity in series [1] corresponds to a Ki of 20.4 nM.

For `CN(C)c1ccc(C#CC(=O)c2ccc([125I])cc2)cc1`, the Drug uptake in the series on Brain [2] is reported as 0.93 %ID; in the series with Heart [3] it was 6.03 %ID; with Pancreas [4] it was 2.57 %ID; in the series with Stomach [5], 2.35 %ID; with Spleen [6], 5.47 %ID; in the series with Intestine [7], 12.04 %ID. The Drug uptake in the series with Kidney [8] amounted to 8.34 %ID; in the series on Liver [9], 12.02 %ID; in the series with Blood [10] it was 3.94 %ID; with Brain [11], 1.23 %ID; with Heart [12], 7.53 %ID; in the series with Pancreas [13] it was 3.39 %ID. Moreover, the Drug uptake in the series on Stomach [14] turned out to be 2.97 %ID; in the series on Spleen [15] it was 5.19 %ID; with Intestine [16], 8.44 %ID; with Kidney [17], 9.81 %ID; in the series with Liver [18] it was 15.29 %ID; with Blood [19] it was 5.44 %ID. The Drug uptake with Brain [20] was found to be 1.55 %ID; in the series with Heart [21], 10 %ID; in the series with Pancreas [22], 3.9 %ID; in the series with Stomach [23], 0.75 %ID; in the series with Spleen [24], 4.41 %ID; in the series on Intestine [25], 2.73 %ID. Besides, the Drug uptake with Kidney [26] turned out to be 10.45 %ID; in the series on Liver [27], 19.96 %ID; in the series with Blood [28] it was 6.19 %ID; in the series on Blood [29], 3.07 %ID; with Liver [30], 10.06 %ID; in the series on Kidney [31], 7.75 %ID. The Drug uptake in the series with Intestine [32] was 14.02 %ID; with Spleen [33], 4.43 %ID; in the series on Stomach [34], 1.46 %ID; in the series with Pancreas [35] it was 2.09 %ID; with Heart [36] it was 4.94 %ID; in the series on Brain [37] it was 0.76 %ID.

`COc1ccc(C#CC(=O)c2ccc(I)cc2)cc1` came in with a Ki in series [1] of 13.7 nM.

In series [1], `CN(C)c1ccc(C#CC(=O)c2ccc(I)cc2)cc1` registered a Ki of 6 nM. Further, the result in the series listed under Mus musculus [38] was Active. Also, the result in the series filed under Mus musculus [39] was inactive.
